From ChEMBL document CHEMBL5463729, “Data for DCP probe BAY 1753011” (2023)

Columns and labels:
Conditions in all cases: Compound concentration 10.0 uM
[1] = target: Dual specificity mitogen-activated protein kinase kinase 1 (Homo sapiens) (UniProt Q02750); assay: Inhibition of MEK1(h) at 10.0 µM in the Eurofins Kinase panel
[2] = target: Proto-oncogene tyrosine-protein kinase receptor Ret (Homo sapiens) (UniProt P07949); assay: Inhibition of Ret(h) at 10.0 µM in the Eurofins Kinase panel
[3] = target: Muscle, skeletal receptor tyrosine-protein kinase (Homo sapiens) (UniProt O15146); assay: Inhibition of MuSK(h) at 10.0 µM in the Eurofins Kinase panel
[4] = target: Casein kinase I isoform gamma-3 (Homo sapiens) (UniProt Q9Y6M4); assay: Inhibition of CK1gamma3(h) at 10.0 µM in the Eurofins Kinase panel
[5] = target: Tyrosine-protein kinase Lyn (Homo sapiens) (UniProt P07948); assay: Inhibition of Lyn(h) at 10.0 µM in the Eurofins Kinase panel
[6] = target: cAMP-dependent protein kinase (PKA) (Homo sapiens) (UniProt P22694+P17612+P22612); assay: Inhibition of PKA(h) at 10.0 µM in the Eurofins Kinase panel; format: protein assay
[7] = target: T1, Muscarinic acetylcholine receptor M2 (Homo sapiens) (UniProt P08172)
T1 sequence (whole entry): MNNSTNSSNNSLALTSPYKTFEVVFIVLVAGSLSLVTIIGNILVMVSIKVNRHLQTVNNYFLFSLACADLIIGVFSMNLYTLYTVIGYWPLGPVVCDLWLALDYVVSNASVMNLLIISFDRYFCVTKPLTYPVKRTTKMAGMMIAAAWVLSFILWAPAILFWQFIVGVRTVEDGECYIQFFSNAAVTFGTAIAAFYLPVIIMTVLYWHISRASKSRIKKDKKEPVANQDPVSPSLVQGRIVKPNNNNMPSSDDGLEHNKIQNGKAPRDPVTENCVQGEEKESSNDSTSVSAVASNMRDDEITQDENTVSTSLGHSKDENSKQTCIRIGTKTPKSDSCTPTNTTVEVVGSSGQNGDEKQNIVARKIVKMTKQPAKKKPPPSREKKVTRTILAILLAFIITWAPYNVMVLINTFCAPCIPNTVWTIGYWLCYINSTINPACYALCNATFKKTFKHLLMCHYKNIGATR

[8] = target: MAP kinase-interacting serine/threonine-protein kinase 2 (Homo sapiens) (UniProt Q9HBH9); assay: Inhibition of Mnk2(h) at 10.0 µM in the Eurofins Kinase panel
[9] = target: Casein kinase 2 (Homo sapiens) (UniProt P67870+P68400+P19784+Q8NEV1); assay: Inhibition of CK2(h) at 10.0 µM in the Eurofins Kinase panel; format: protein assay
[10] = target: Myosin-IIIb (Homo sapiens) (UniProt Q8WXR4); assay: Inhibition of MYO3B(h) at 10.0 µM in the Eurofins Kinase panel
[11] = target: Ribosomal protein S6 kinase alpha-2 (Homo sapiens) (UniProt Q15349); assay: Inhibition of Rsk3(h) at 10.0 µM in the Eurofins Kinase panel
Ribosomal protein S6 kinase alpha-2 (Homo sapiens), sequence (Q15349 whole entry): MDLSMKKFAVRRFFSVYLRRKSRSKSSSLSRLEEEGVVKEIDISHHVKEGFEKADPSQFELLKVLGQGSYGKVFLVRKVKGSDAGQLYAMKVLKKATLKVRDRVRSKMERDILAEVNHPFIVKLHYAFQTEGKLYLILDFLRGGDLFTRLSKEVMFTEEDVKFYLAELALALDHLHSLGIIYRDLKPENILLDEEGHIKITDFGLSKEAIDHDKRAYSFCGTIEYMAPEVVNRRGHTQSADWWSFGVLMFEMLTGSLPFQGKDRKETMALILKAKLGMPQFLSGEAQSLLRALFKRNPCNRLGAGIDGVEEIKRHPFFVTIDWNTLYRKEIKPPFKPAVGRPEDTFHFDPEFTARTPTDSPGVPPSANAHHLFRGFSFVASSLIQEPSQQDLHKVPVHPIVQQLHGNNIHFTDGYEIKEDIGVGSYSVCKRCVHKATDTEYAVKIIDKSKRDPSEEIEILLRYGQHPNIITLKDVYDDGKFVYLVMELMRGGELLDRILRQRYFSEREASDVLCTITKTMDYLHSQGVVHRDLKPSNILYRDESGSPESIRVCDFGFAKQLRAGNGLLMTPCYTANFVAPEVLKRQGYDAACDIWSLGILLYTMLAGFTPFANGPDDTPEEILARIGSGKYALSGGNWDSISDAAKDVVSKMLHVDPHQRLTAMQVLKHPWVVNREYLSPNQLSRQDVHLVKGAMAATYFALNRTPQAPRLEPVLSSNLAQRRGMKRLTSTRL

[12] = target: Mitogen-activated protein kinase kinase kinase kinase 4 (Homo sapiens) (UniProt O95819); assay: Inhibition of MAP4K4(h) at 10.0 µM in the Eurofins Kinase panel
[13] = target: Activin receptor type-1-like (Homo sapiens) (UniProt P37023); assay: Inhibition of ALK1(h) at 10.0 µM in the Eurofins Kinase panel
Activin receptor type-1-like (Homo sapiens), sequence (P37023 whole entry): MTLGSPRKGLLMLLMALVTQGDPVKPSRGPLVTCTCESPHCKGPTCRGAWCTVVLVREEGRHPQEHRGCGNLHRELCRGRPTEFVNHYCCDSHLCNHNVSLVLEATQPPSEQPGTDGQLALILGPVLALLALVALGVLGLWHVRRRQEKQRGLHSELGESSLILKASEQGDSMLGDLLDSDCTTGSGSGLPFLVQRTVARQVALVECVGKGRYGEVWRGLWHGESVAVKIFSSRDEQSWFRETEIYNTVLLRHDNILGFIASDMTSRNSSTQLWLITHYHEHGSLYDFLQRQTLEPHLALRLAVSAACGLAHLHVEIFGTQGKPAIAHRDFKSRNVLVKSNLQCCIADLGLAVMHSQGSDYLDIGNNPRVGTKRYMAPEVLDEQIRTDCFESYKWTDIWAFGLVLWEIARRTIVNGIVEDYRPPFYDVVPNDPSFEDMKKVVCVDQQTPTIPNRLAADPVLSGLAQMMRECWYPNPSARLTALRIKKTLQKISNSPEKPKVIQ

[14] = target: Vascular endothelial growth factor receptor 3 (Homo sapiens) (UniProt P35916); assay: Inhibition of Flt4(h) at 10.0 µM in the Eurofins Kinase panel
[15] = target: Serine/threonine-protein kinase 26 (Homo sapiens) (UniProt Q9P289); assay: Inhibition of MST4(h) at 10.0 µM in the Eurofins Kinase panel
[16] = target: D(3) dopamine receptor (Homo sapiens) (UniProt P35462)
[17] = target: Dual specificity protein kinase TTK (Homo sapiens) (UniProt P33981); assay: Inhibition of TTK(h) at 10.0 µM in the Eurofins Kinase panel
[18] = target: Myotonin-protein kinase (Homo sapiens) (UniProt Q09013); assay: Inhibition of DMPK(h) at 10.0 µM in the Eurofins Kinase panel
[19] = target: Beta-adrenergic receptor kinase 1 (Homo sapiens) (UniProt P25098); assay: Inhibition of GRK2(h) at 10.0 µM in the Eurofins Kinase panel
[20] = target: Histamine H1 receptor (Homo sapiens) (UniProt P35367)
Histamine H1 receptor (Homo sapiens), sequence (P35367 whole entry): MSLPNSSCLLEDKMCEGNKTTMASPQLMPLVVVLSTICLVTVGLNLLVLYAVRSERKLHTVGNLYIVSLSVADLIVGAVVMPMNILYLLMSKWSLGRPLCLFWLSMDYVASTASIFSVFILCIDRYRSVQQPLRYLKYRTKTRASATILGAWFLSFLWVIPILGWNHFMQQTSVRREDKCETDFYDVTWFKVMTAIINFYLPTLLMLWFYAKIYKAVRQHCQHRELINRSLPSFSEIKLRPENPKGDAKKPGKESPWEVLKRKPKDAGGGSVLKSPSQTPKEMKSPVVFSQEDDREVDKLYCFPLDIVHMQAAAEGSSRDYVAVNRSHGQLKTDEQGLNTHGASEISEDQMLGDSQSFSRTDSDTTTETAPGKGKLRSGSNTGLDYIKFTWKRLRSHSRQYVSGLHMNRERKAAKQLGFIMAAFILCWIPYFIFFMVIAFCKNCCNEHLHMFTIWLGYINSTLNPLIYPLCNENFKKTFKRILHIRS

[21] = target: Serine/threonine-protein kinase 32A (Homo sapiens) (UniProt Q8WU08); assay: Inhibition of STK32A(h) at 10.0 µM in the Eurofins Kinase panel
Rattus norvegicus = species on record: Rattus norvegicus
[22] = target: Kappa-type opioid receptor (Homo sapiens, UniProt P41145)
[23] = target: Phosphorylase b kinase gamma catalytic chain, testis/liver isoform (Homo sapiens) (UniProt P15735); assay: Inhibition of PhKgamma2(h) at 10.0 µM in the Eurofins Kinase panel
Phosphorylase b kinase gamma catalytic chain, testis/liver isoform (Homo sapiens), sequence (P15735 whole entry, looked up, canonical isoform): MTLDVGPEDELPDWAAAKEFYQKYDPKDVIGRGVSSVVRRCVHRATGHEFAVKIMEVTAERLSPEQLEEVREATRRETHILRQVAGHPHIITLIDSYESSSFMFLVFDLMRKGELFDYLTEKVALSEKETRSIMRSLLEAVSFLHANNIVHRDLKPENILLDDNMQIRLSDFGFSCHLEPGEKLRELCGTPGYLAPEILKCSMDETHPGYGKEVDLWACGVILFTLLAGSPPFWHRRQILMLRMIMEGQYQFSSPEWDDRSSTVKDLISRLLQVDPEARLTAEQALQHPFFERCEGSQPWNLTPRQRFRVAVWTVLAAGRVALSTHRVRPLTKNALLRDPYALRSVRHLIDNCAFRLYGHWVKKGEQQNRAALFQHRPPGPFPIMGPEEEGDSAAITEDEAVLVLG

[24] = target: Cyclin-Y/Cyclin-dependent kinase 16 (Homo sapiens) (UniProt Q00536+Q8ND76); assay: Inhibition of CDK16/cyclinY(h) at 10.0 µM in the Eurofins Kinase panel; format: protein-complex assay
[25] = target: Protein kinase C alpha type (Homo sapiens) (UniProt P17252); assay: Inhibition of PKCalpha(h) at 10.0 µM in the Eurofins Kinase panel
[26] = target: Alpha-1B adrenergic receptor (Homo sapiens) (UniProt P35368)
Alpha-1B adrenergic receptor (Homo sapiens), sequence (P35368 whole entry): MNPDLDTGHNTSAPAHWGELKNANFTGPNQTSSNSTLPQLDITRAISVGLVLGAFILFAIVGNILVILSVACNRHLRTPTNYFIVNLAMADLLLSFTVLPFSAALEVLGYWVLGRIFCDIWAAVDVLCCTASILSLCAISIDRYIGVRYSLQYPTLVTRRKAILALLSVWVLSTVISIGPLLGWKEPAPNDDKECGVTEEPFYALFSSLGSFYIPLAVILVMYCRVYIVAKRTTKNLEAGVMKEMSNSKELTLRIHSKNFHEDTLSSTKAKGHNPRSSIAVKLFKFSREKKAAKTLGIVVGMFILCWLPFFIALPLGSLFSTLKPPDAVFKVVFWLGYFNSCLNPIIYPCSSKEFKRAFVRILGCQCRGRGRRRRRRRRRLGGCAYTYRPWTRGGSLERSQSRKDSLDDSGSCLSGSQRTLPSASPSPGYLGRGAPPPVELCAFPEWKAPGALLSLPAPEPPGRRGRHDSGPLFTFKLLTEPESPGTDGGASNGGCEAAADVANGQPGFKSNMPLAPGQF

[27] = target: Androgen receptor (Homo sapiens) (UniProt P10275)
[28] = target: Platelet-derived growth factor receptor beta (Homo sapiens) (UniProt P09619); assay: Inhibition of PDGFRbeta(h) at 10.0 µM in the Eurofins Kinase panel
Platelet-derived growth factor receptor beta (Homo sapiens), sequence (P09619 whole entry): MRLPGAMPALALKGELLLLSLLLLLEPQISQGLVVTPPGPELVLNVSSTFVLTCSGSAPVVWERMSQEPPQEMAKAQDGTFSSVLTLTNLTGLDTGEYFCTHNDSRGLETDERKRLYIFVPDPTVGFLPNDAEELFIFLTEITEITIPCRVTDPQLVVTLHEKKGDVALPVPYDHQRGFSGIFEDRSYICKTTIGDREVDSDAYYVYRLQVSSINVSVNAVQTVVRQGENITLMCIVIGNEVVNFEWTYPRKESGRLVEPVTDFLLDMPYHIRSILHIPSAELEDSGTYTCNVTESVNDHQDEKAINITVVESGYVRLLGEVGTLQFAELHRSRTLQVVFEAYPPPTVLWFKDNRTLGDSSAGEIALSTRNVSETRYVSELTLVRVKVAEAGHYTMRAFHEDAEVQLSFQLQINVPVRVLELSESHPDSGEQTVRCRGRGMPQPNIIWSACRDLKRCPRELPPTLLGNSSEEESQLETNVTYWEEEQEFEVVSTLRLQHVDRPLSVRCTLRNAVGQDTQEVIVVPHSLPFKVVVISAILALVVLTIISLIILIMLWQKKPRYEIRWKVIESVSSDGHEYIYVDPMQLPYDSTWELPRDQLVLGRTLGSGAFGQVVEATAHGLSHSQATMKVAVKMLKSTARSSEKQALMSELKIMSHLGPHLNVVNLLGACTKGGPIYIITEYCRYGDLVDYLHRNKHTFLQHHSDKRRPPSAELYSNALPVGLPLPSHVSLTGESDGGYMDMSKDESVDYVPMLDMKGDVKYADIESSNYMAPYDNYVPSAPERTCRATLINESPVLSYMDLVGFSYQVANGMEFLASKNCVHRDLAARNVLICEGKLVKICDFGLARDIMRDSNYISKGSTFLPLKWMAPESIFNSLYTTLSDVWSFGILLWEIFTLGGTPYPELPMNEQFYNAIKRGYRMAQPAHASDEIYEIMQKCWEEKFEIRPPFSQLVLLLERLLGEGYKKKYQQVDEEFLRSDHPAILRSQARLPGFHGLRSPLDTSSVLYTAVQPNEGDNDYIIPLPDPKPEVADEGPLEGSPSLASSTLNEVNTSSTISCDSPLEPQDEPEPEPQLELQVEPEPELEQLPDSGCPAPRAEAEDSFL

[29] = target: Serine/threonine-protein kinase ULK3 (Homo sapiens) (UniProt Q6PHR2); assay: Inhibition of ULK3(h) at 10.0 µM in the Eurofins Kinase panel
[30] = target: Serine/threonine-protein kinase STK11 (Homo sapiens) (UniProt Q15831); assay: Inhibition of LKB1(h) at 10.0 µM in the Eurofins Kinase panel
[31] = target: Serine/threonine-protein kinase 17A (Homo sapiens) (UniProt Q9UEE5); assay: Inhibition of DRAK1(h) at 10.0 µM in the Eurofins Kinase panel
[32] = target: Activated CDC42 kinase 1 (Homo sapiens) (UniProt Q07912); assay: Inhibition of ACK1(h) at 10.0 µM in the Eurofins Kinase panel
[33] = target: NT-3 growth factor receptor (Homo sapiens) (UniProt Q16288); assay: Inhibition of TrkC(h) at 10.0 µM in the Eurofins Kinase panel

Proto-oncogene tyrosine-protein kinase receptor Ret (Homo sapiens), sequence (P07949 whole entry): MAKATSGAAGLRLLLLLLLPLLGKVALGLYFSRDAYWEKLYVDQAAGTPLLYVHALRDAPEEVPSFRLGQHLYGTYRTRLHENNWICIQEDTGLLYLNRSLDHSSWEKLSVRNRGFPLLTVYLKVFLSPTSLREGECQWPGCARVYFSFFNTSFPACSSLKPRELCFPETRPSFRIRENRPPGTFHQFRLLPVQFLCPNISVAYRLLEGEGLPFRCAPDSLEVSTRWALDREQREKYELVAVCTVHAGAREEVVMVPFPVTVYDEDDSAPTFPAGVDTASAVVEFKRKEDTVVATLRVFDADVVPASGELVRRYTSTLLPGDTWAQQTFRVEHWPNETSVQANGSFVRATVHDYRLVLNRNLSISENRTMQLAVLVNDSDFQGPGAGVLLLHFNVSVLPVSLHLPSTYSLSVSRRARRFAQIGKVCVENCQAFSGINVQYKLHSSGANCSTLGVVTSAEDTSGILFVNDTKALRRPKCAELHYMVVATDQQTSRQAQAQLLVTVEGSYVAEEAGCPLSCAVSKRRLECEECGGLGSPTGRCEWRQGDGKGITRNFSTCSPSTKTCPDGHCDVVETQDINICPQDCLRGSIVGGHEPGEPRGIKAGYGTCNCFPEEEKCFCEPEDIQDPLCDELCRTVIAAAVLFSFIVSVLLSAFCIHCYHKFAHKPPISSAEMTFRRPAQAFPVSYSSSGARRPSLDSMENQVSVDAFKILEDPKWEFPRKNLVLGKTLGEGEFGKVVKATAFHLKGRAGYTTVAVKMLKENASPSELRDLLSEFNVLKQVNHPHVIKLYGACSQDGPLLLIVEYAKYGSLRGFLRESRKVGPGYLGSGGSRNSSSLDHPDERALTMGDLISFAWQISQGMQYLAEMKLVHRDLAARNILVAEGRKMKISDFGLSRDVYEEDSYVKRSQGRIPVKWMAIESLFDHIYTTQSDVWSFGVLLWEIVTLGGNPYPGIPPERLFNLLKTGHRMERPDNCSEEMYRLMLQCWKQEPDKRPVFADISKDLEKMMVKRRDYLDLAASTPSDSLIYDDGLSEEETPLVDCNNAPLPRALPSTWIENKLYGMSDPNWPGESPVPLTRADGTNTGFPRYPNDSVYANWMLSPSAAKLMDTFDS

| Compound | inhibition [1] | inhibition [2] | inhibition [3] | inhibition [4] | inhibition [5] | inhibition [6] | inhibition [7] | inhibition [8] | inhibition [9] | inhibition [10] | inhibition [11] | inhibition [12] | inhibition [13] | inhibition [14] | inhibition [15] | inhibition [16] | inhibition [17] | inhibition [18] | inhibition [19] | inhibition [20] | also measured |
| --- | --- | --- | --- | --- | --- | --- | --- | --- | --- | --- | --- | --- | --- | --- | --- | --- | --- | --- | --- | --- | --- |
| O=c1n(Cc2cncn2-c2cccc(Cl)c2)nc(-c2ccc(Cl)cc2)n1C[C@H](O)C(F)(F)F | 4.57% | -9.37% | 0.19% | -8.47% | -1.91% | 2.56% | -9.34% | -0.78% | -3.37% | 6.86% | -0.87% | 5.56% | -1.34% | 11.3% | -4.66% | -8% | -7.11% | 4.48% | -6.21% | 28.5% | inhibition [21]: -1.08%; inhibition (Rattus norvegicus): 9%; inhibition [22]: 10%; inhibition [23]: -3.49%; inhibition [24]: 4.57%; inhibition [25]: 2.18%; inhibition [26]: -2.47%; inhibition [27]: 9%; inhibition [28]: -9.1%; inhibition [29]: 6.3%; inhibition [30]: 1.85%; inhibition [31]: -1.37%; inhibition [32]: 8.43%; inhibition [33]: 0.07% |
| C[C@H](O)c1nc(Cn2nc(-c3ccc(Cl)cc3)n(C[C@H](O)C(F)(F)F)c2=O)nn1-c1cccc(Cl)c1 [PECAVAPTAN] | -3.73% | -9.36% | -2.36% | -8.75% | -5.89% | -3.46% | 4.65% | 3.54% | 5.37% | 2.49% | 9.71% | -1.46% | -9.71% | 4.21% | -2.72% | 26% | 2.07% | 12.7% | 5.86% | 12% | inhibition [21]: 3.15%; inhibition (Rattus norvegicus): 8%; inhibition [22]: 19%; inhibition [23]: 0.74%; inhibition [24]: -5.42%; inhibition [25]: 1.13%; inhibition [26]: -5.25%; inhibition [27]: 12%; inhibition [28]: -5.19%; inhibition [29]: 10.9%; inhibition [30]: -1.51%; inhibition [31]: -9.63%; inhibition [32]: -1.31%; inhibition [33]: -6.4% |
